From patent US12643867B2, “Compositions and uses thereof” (University of Virginia Patent Foundation, priority 2017, dated 2026)

Tests used:
Assay in all cases: SILAC LC-MS ATP acyl phosphate probe competition, native kinases in HEK293T
Type in all cases: binding
[1] = molecular target: T1, M4K3 (Mitogen-activated protein kinase kinase kinase kinase 3) (Homo sapiens, UniProt Q8IVH8); details: site Lys2; ATP 1 mM; Ketanserin, Ritanserin 100 μM; RF001 1 mM
T1 construct: Native kinases; endogenous in cells; host or cells: HEK293T soluble proteome
T1 sequence (Q8IVH8 1-894): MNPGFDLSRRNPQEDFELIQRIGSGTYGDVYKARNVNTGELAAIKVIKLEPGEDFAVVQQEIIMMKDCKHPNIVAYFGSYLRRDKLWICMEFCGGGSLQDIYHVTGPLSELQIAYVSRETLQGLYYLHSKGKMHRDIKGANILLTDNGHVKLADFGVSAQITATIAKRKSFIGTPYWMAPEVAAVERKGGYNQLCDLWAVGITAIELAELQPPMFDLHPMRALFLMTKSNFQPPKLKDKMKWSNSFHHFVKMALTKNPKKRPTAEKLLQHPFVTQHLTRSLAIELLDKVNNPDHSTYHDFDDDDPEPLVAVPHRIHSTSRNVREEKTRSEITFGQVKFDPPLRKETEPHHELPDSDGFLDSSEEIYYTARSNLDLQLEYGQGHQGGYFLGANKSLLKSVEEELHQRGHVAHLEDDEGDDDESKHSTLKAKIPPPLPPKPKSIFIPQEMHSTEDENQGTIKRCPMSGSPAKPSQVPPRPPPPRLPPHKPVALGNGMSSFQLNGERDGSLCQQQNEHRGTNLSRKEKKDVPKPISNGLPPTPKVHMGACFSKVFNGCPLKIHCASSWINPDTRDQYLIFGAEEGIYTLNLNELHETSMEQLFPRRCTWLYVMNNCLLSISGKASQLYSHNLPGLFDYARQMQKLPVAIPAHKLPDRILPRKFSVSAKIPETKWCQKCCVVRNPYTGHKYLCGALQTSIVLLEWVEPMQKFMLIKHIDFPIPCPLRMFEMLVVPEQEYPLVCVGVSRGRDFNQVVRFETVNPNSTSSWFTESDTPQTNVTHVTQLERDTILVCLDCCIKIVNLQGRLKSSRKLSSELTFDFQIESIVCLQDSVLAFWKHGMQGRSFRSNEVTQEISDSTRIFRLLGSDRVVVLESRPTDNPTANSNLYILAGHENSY
Procedure, shortened: (§1)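 Light and heavy SILAC HEK293T proteomes (2 mg/ml in kinase buffer) were pre-treated with DMSO or compound (50× stock in DMSO) for 30 min at 25° C, then mixed 1:1, reduced, alkylated and digested with trypsin/Lys-C. Desthiobiotin-labelled peptides were avidin-enriched and analysed by LC-MS/MS on an Orbitrap, top-10 data-dependent acquisition.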

[2] = molecular target: T2, CHK2 (Serine/threonine-protein kinase Chk2) (Homo sapiens, UniProt O96017); details: for SILAC ratio, CHK2 probe-modified peptide: site Lys1, ATP 1 mM, Ketanserin, Ritanserin 100 μM, RF001 1 mM
T2 construct: measured against >50 native kinases quantified in HEK293T soluble proteomes; endogenous in cells; host or cells: HEK293T soluble proteome
Procedure, shortened: as §1

[3] = molecular target: T3, IRAK1 (Interleukin-1 receptor-associated kinase 1) (Homo sapiens, UniProt P51617); details: site Lys2; ATP 1 mM; Ketanserin, Ritanserin 100 μM; RF001 1 mM
T3 construct: measured against >50 native kinases quantified in HEK293T soluble proteomes; endogenous in cells; host or cells: HEK293T soluble proteome
Procedure, shortened: as §1

T3 sequence (P51617 whole entry): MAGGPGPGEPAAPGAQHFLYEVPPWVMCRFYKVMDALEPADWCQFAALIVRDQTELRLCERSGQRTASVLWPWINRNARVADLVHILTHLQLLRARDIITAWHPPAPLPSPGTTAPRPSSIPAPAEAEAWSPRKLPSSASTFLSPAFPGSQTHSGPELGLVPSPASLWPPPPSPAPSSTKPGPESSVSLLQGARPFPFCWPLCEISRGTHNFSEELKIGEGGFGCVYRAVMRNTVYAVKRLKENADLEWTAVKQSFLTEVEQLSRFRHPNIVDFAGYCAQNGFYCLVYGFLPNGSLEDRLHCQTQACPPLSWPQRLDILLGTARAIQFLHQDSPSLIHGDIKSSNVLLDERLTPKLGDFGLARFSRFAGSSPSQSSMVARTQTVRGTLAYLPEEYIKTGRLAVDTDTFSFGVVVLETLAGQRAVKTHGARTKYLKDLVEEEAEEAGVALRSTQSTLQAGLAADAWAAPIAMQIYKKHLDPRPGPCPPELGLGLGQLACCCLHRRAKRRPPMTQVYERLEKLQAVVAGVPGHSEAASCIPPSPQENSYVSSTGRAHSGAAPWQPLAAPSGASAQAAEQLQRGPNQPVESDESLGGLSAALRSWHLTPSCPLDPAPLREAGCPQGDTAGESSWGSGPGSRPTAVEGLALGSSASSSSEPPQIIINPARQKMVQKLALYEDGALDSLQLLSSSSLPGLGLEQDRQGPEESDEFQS
T2 sequence (O96017 whole entry): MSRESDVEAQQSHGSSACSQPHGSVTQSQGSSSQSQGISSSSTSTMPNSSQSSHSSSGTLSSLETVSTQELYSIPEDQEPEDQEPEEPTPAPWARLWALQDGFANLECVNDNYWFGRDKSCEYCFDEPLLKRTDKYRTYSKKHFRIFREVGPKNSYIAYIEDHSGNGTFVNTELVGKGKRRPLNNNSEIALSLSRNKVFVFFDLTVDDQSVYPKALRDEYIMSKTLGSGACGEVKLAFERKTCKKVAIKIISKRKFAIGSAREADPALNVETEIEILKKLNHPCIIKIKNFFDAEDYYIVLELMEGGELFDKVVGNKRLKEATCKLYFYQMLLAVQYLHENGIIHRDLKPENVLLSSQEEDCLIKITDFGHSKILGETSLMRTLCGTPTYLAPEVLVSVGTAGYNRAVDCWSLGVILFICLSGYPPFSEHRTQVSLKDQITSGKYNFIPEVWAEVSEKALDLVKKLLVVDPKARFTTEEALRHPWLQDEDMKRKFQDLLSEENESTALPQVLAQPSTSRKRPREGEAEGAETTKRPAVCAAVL

Row | Compound | SILAC ratio, M4K3 probe-modified peptide [1] | SILAC ratio, CHK2 probe-modified peptide [2] | SILAC ratio, IRAK1 probe-modified peptide [3] | CHK2 ATP acyl-phosphate labeling response (words, FIG. 20) ([2]; H82 and HEK293T, 1 mM RF001)
1 | O=C(c1ccc(F)cc1)C1CCN(CCn2c(=O)[nH]c3ccccc3c2=O)CC1 [Ketanserin] | 1.4 | 1.6 | 1.4 | –
2 | Cc1nc2sccn2c(=O)c1CCN1CCC(=C(c2ccc(F)cc2)c2ccc(F)cc2)CC1 [Ritanserin] | 1.8 | 2.2 | 2.6 | –
3 | Fc1ccc(C(=C2CCNCC2)c2ccc(F)cc2)cc1 [RF001, 4-(Bis(4-fluorophenyl)methylene) piperidine] | 1.1 | 0.2 | 2.2 | activator of CHK2
